Reference: patent US4565810A, “Derivatives of biliary acids, process for the production thereof and pharmaceutical compositions containing the same” (Lehner A.G., priority 1983, dated 1986)
Where two headings read alike, the source gives them in different places.

Columns and labels:
physchem [1] = experiment: physchem
Text: (§1) The [α]D, pKa, the retention factor and the critical micellar concentrations (CMC), important because related to the capacity to form micelles in the bile and function of the hydrophilic/lipophilic balance, have been determined on the A, B, C, D isomers of 22,23-methanate-ursodeoxycholic acid. The CMCs have been measured by the method of the solubilization of insoluble dyes such as Azulene and Orange OT (Roda et al., J. Biol. Chem., in press).
*Determined by potentiometric titration.

[2] = assay type: physicochemical
Text: as §1

physchem [3] = conditions: c18 hplc, methanol/water; for K' (retention factor): pH 5.7
Text: as §1
**K' = Retention factor. It has been calculated from the retention times
on HPLC using as stationary phase a C18 column and as mobile phase a
mixture of methanol/H2 O 130/70; pH 5.7.

bile lipid secretion = experiment: Bile flow and bile lipid secretion in anaesthetized rats; assay type: in vivo, Sprague-Dawley rats; conditions: 50 mg i.v., bile collected for 5 h; for Bile flow: controls 0.55 ± 0.12, *** p < 0.01 vs. controls; for Cholesterol secretion: controls 1.66 ± 0.12, *** p < 0.01 vs. controls; for Phospholipid secretion: controls 6.92 ± 0.44, *** p < 0.01 vs. controls (CUDCA); for BA (bile acids) secretion: controls 61 ± 8
Text: *The control values were obtained on five rats studied under similar
conditions to the BA treated rats. Each value represents the mean plus or
minus the SD of five determinations.

[4] = biological target: human serum albumina (HSP) (Homo sapiens, UniProt P02768); experiment: Interaction with human serum albumin (albumin affinity constant)
[5] = Hepatic uptake in isolated rat livers (method of Mortimore); assay type: in vitro ADME; conditions: isolated perfused liver, mean ± SD of five determinations

human serum albumina (HSP), sequence (P02768 25-609): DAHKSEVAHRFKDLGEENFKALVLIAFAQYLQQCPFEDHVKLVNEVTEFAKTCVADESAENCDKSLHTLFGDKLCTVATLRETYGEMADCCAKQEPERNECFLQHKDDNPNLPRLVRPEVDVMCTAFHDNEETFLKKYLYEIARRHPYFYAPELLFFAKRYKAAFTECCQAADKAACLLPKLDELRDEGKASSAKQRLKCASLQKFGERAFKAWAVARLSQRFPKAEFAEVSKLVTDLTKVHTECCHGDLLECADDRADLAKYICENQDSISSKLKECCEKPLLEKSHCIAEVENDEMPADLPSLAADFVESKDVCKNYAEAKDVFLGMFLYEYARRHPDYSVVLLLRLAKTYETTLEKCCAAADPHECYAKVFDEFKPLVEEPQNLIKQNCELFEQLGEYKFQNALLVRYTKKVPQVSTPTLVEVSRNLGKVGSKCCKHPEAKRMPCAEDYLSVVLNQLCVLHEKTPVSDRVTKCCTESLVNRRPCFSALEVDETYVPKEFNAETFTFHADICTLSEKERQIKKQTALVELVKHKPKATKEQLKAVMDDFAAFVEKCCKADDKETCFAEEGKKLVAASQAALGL

SMILES	pKa (physchem [1])	CMC (H2O) [2] [mM]	CMC (Na^+ 0.15 M) [2] [mM]	K' (retention factor) (physchem [3])	pKa (physchem [1]; pKa)	chromatographic logD (physchem [3]; pH 5.7, K' (retention factor))	Bile flow (bile lipid secretion) [mL/h]	Cholesterol secretion (bile lipid secretion) [µmol/kg/h]	Phospholipid secretion (bile lipid secretion)	BA (bile acids) secretion (bile lipid secretion) [µmol/kg/h]	Kd [4] [µM]	hepatic extraction ratio [5]
C[C@H](C1CC1C(=O)O)[C@H]1CC[C@H]2[C@@H]3[C@@H](O)C[C@@H]4C[C@H](O)CC[C@]4(C)[C@H]3CC[C@]12C (single isomer, unassigned) [Isom. D, 22,23-methanate-ursodeoxycholic acid]	5.04	10	6	2.05								
C[C@H](CCC(=O)O)[C@H]1CC[C@H]2[C@@H]3[C@@H](O)C[C@H]4C[C@H](O)CC[C@]4(C)[C@H]3CC[C@]12C [UDCA, 3α, 7β-dihydroxy-5α-cholan-24-oic acid, reference compound]		19	11		5.06	-0.0223	1.08 ± 0.15	2.12 ± 0.09	6.47 ± 0.54 ^.parallel.mol kg^-1 h^-	98 ± 7		
C[C@H](C1CC1C(=O)O)[C@H]1CC[C@H]2[C@@H]3[C@@H](O)C[C@@H]4C[C@H](O)CC[C@]4(C)[C@H]3CC[C@]12C (stereo partly drawn) [CUDCA, 3α, 7β-dihydroxy-22,23-methylene-5β-cholan-24-oic acid]							1.68 ± 0.20	2.70 ± 0.14	9.50 ± 0.44 ^.parallel.mol kg^-1 h^-	97 ± 9	14.7	0.46 ± 0.01
C[C@H](C1CC1C(=O)O)[C@H]1CC[C@H]2[C@@H]3[C@@H](O)C[C@@H]4C[C@H](O)CC[C@]4(C)[C@H]3CC[C@]12C (single isomer, unassigned) [Isom. C, 22,23-methanate-ursodeoxycholic acid]	5.02	14	8	1.30								
C[C@H](C1CC1C(=O)O)[C@H]1CC[C@H]2[C@@H]3[C@@H](O)C[C@@H]4C[C@H](O)CC[C@]4(C)[C@H]3CC[C@]12C (single isomer, unassigned) [Isom. B, 22,23-methanate-ursodeoxycholic acid]	5.06	20	12	0.80								
C[C@H](C1CC1C(=O)O)[C@H]1CC[C@H]2[C@@H]3[C@@H](O)C[C@@H]4C[C@H](O)CC[C@]4(C)[C@H]3CC[C@]12C (single isomer, unassigned) [Isom. A, 22,23-methanate-ursodeoxycholic acid]		25	16	0.21	5.03							
